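Assay format: 96-well plates, 48-hour exposure. The concentration for 50% growth inhibition is given as GI50.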 Activity calls are given as the source filed them. Cut-off read from the data, not from the text of the source: active = GI50 up to about 1.1 µM and inactive = higher. Residues, ends and D or L forms follow the SMILES beside them. *: point of attachment. Boc = CC(C)(C)OC(=O)*
Key:
Experiment in all cases: NCI anticancer screen, dose series, 48 h
[1] = system: HOP-92
[2] = system: M14
[3] = system: NCI-H226
[4] = system: HCT-15
[5] = system: TK-10
[6] = system: RXF 393
[7] = system: HCT-116
[8] = system: OVCAR-8
[9] = system: ACHN
[10] = system: SNB-75
[11] = system: CCRF-CEM
[12] = system: OVCAR-3
[13] = system: UO-31
[14] = system: MOLT-4
[15] = system: UACC-62
[16] = system: SK-MEL-28
[17] = system: NCI/ADR-RES
[18] = system: PC-3
[19] = system: MDA-MB-435
[20] = system: MDA-MB-231

SMILES | GI50 [1] | GI50 [2] | GI50 [3] | GI50 [4] [µM] | GI50 [5] | GI50 [6] | GI50 [7] | GI50 [8] | GI50 [9] | GI50 [10] | GI50 [11] | GI50 [12] | GI50 [13] | GI50 [14] | GI50 [15] | GI50 [16] | GI50 [17] | GI50 [18] | GI50 [19] | GI50 [20]
CC(=O)OC1CC2C(C)(C)C(=O)C=C[C@]2(C)C2CCC3(C)C(c4ccoc4)[C@@H](O)[C@H]4O[C@]43[C@]12C (stereo partly drawn) | 20.3 µM (inactive) | 19.9 µM (inactive) | 18.4 µM (inactive) | 17.4 | 34.2 µM (inactive) | 19.1 µM (inactive) | 24.9 µM (inactive) | 18.3 µM (inactive) | 21.8 µM (inactive) | 24 µM (inactive) | 21.6 µM (inactive) | 17.7 µM (inactive) | 17.8 µM (inactive) | 21.7 µM (inactive) | 16.2 µM (inactive) | 23.7 µM (inactive) | – | – | – | –
CCc1cccc(C(C)C)c1NC(=O)C(=O)C(C(=O)C(=O)OC)c1nc2ccccc2nc1O (stereo not drawn) | > 100 µM (inactive) | > 100 µM (inactive) | > 100 µM (inactive) | > 100 | > 100 µM (inactive) | > 100 µM (inactive) | > 100 µM (inactive) | > 100 µM (inactive) | > 100 µM (inactive) | > 100 µM (inactive) | > 100 µM (inactive) | – | > 100 µM (inactive) | > 100 µM (inactive) | > 100 µM (inactive) | > 100 µM (inactive) | – | – | – | –
C=CCN1COc2c(cc3c4c(cccc24)C(=O)O3)C1 | 16.2 µM (inactive) | 22.9 µM (inactive) | > 100 µM (inactive) | 29.2 | 21.7 µM (inactive) | > 10 µM (inactive) | 20.1 µM (inactive) | > 100 µM (inactive) | > 10 µM (inactive) | 23.8 µM (inactive) | 19.6 µM (inactive) | 25.2 µM (inactive) | 23.1 µM (inactive) | 27 µM (inactive) | 19.2 µM (inactive) | 24.6 µM (inactive) | – | – | – | –
Nc1c(C(=O)O)nnc2cc(Cl)c(Cl)cc12 | – | > 100 µM (inactive) | 47.8 µM (inactive) | > 100 | > 100 µM (inactive) | – | > 100 µM (inactive) | > 100 µM (inactive) | > 100 µM (inactive) | > 100 µM (inactive) | > 100 µM (inactive) | > 100 µM (inactive) | 56.9 µM (inactive) | > 100 µM (inactive) | > 100 µM (inactive) | – | > 100 µM (inactive) | > 100 µM (inactive) | > 100 µM (inactive) | > 100 µM (inactive)
N#C/C(=C\c1cccc(Cl)c1Cl)c1ccccc1 | 44.5 µM (inactive) | 74.5 µM (inactive) | 56.2 µM (inactive) | > 57.4 | 57.3 µM (inactive) | 31 µM (inactive) | 33 µM (inactive) | 53.3 µM (inactive) | 44.9 µM (inactive) | 19.1 µM (inactive) | 39.3 µM (inactive) | 46.9 µM (inactive) | 48.1 µM (inactive) | > 100 µM (inactive) | 58.3 µM (inactive) | > 100 µM (inactive) | – | – | – | –
O=C1O/C(=C\c2ccc(O)c(Br)c2)C(c2ccc(O)cc2)=C1Cl | 37.4 µM (inactive) | 36.1 µM (inactive) | – | 36.6 | 45.6 µM (inactive) | 29.9 µM (inactive) | 34.1 µM (inactive) | 42.5 µM (inactive) | 49.9 µM (inactive) | 53.3 µM (inactive) | 0.849 µM (active) | 27.2 µM (inactive) | 48.2 µM (inactive) | 65.8 µM (inactive) | 16.4 µM (inactive) | > 100 µM (inactive) | 29.6 µM (inactive) | 51.1 µM (inactive) | 33.3 µM (inactive) | –
Cc1ccc(C2=C(Cl)C(=O)C(c3ccc(C)cc3)=C(Cl)C2=O)cc1 | > 100 µM (inactive) | > 100 µM (inactive) | > 100 µM (inactive) | > 100 | > 100 µM (inactive) | > 100 µM (inactive) | > 100 µM (inactive) | > 100 µM (inactive) | > 100 µM (inactive) | > 100 µM (inactive) | 83.4 µM (inactive) | > 100 µM (inactive) | > 100 µM (inactive) | > 100 µM (inactive) | > 100 µM (inactive) | > 100 µM (inactive) | > 100 µM (inactive) | > 100 µM (inactive) | > 100 µM (inactive) | –
CC1(C)N=C(N)N=C(N)N1c1cccc(OCCOc2ccc([N+](=O)[O-])cc2)c1 | > 100 µM (inactive) | 34.8 µM (inactive) | – | > 100 | > 100 µM (inactive) | 21.8 µM (inactive) | 4.81 µM (inactive) | 74.6 µM (inactive) | > 100 µM (inactive) | – | 7.76 µM (inactive) | 41.6 µM (inactive) | – | > 100 µM (inactive) | – | 53.3 µM (inactive) | – | 0.822 µM (active) | 5.04 µM (inactive) | > 100 µM (inactive)
CSC1=NN=C(SC)NN1 | 0.173 µM (active) | 0.184 µM (active) | 0.181 µM (active) | 0.169 | 0.213 µM (active) | – | 0.167 µM (active) | 0.285 µM (active) | 0.168 µM (active) | – | 0.0243 µM (active) | 0.185 µM (active) | 0.188 µM (active) | 0.027 µM (active) | 0.148 µM (active) | 0.186 µM (active) | 0.3 µM (active) | 0.166 µM (active) | 0.182 µM (active) | 0.22 µM (active)
CCOC(=O)c1oc2ccc(OC)c3c2c1CCC3 | 41.6 µM (inactive) | > 100 µM (inactive) | > 100 µM (inactive) | > 100 | 83.8 µM (inactive) | 70 µM (inactive) | – | > 100 µM (inactive) | > 100 µM (inactive) | > 100 µM (inactive) | 46.7 µM (inactive) | > 100 µM (inactive) | 32.1 µM (inactive) | 26.1 µM (inactive) | > 100 µM (inactive) | > 100 µM (inactive) | – | – | – | –
C[n+]1c(-c2ccc(/C=N/NC(=O)C(=O)N/N=C/c3ccc(-c4cn5ccsc5[n+]4C)cc3)cc2)cn2ccsc21 | – | > 100 µM (inactive) | – | > 100 | > 100 µM (inactive) | – | 92.5 µM (inactive) | > 100 µM (inactive) | > 100 µM (inactive) | > 100 µM (inactive) | > 100 µM (inactive) | – | > 100 µM (inactive) | > 100 µM (inactive) | – | 87.3 µM (inactive) | > 100 µM (inactive) | > 100 µM (inactive) | 48.2 µM (inactive) | > 100 µM (inactive)
CC(C)N(C(=O)C12C3C4C5C3C1(C(=O)N(C(C)C)C(C)C)C5C42)C(C)C (stereo not drawn) | > 100 µM (inactive) | > 100 µM (inactive) | > 100 µM (inactive) | > 71.8 | > 100 µM (inactive) | > 100 µM (inactive) | > 43.6 µM (inactive) | > 60.5 µM (inactive) | > 100 µM (inactive) | > 100 µM (inactive) | > 47.1 µM (inactive) | > 100 µM (inactive) | > 100 µM (inactive) | 68.9 µM (inactive) | > 100 µM (inactive) | > 100 µM (inactive) | – | – | – | –
O=C(CC1(O)C(=O)Nc2ccc(Br)cc21)c1ccc(Cl)cc1 (stereo not drawn) | 35.2 µM (inactive) | 83.2 µM (inactive) | > 100 µM (inactive) | > 100 | > 100 µM (inactive) | 52.2 µM (inactive) | 44.4 µM (inactive) | 52 µM (inactive) | > 100 µM (inactive) | 16.3 µM (inactive) | 38.9 µM (inactive) | > 100 µM (inactive) | > 100 µM (inactive) | 43.3 µM (inactive) | 36.2 µM (inactive) | > 100 µM (inactive) | – | – | – | –
NC(CCc1nc(-c2ccccc2)cs1)C(=O)O (stereo not drawn) | > 100 µM (inactive) | > 100 µM (inactive) | > 100 µM (inactive) | > 100 | > 100 µM (inactive) | > 100 µM (inactive) | > 100 µM (inactive) | > 100 µM (inactive) | > 100 µM (inactive) | 59.6 µM (inactive) | > 100 µM (inactive) | > 100 µM (inactive) | 75.2 µM (inactive) | > 100 µM (inactive) | > 100 µM (inactive) | > 100 µM (inactive) | – | – | – | –
CN(C)c1ccc(C=C2C(=O)N(c3ccccc3)N(c3ccccc3)C2=O)cc1 | 15.6 µM (inactive) | > 100 µM (inactive) | > 100 µM (inactive) | > 100 | > 100 µM (inactive) | – | > 100 µM (inactive) | 56.5 µM (inactive) | 81.8 µM (inactive) | 53.7 µM (inactive) | – | > 100 µM (inactive) | > 100 µM (inactive) | 65.6 µM (inactive) | > 100 µM (inactive) | > 100 µM (inactive) | – | 78 µM (inactive) | 81.1 µM (inactive) | > 100 µM (inactive)
CCOc1ccccc1NC(=O)C(=O)Cc1nc2ccccc2s1 | > 100 µM (inactive) | > 100 µM (inactive) | > 100 µM (inactive) | > 100 | > 100 µM (inactive) | > 100 µM (inactive) | > 100 µM (inactive) | > 100 µM (inactive) | > 100 µM (inactive) | 77.1 µM (inactive) | > 100 µM (inactive) | > 100 µM (inactive) | > 100 µM (inactive) | > 100 µM (inactive) | > 100 µM (inactive) | > 100 µM (inactive) | – | – | – | –
CC(C)(C)OC(=O)NC(Cc1ccc(O)cc1)C(=O)NC(CCCCN)C(=O)O (stereo not drawn) (Boc-Tyr-Lys-OH; configuration not given here) | – | 17.4 µM (inactive) | 39.8 µM (inactive) | > 10 | 37.9 µM (inactive) | – | 16.9 µM (inactive) | 35.2 µM (inactive) | 23.7 µM (inactive) | 31.6 µM (inactive) | 33.4 µM (inactive) | 28.4 µM (inactive) | 19.7 µM (inactive) | 32.8 µM (inactive) | 16.5 µM (inactive) | 23.8 µM (inactive) | – | 44.9 µM (inactive) | 20.7 µM (inactive) | 21.8 µM (inactive)
